What was measured:
[1] = system: Tyrosine-protein kinase ABL1 (Homo sapiens), P00519 [Q252H]; assay: Binding affinity to human phosphorylated ABL1 Q252H mutant expressed in mammalian expression system assessed as residual binding level at 10 uM by Kinomescan method relative to control
[2] = molecular target: Aurora kinase C (Homo sapiens) (UniProt Q9UQB9); assay: Binding affinity to wild-type human full length AURKC (M1 to S275 residues) expressed in bacterial expression system assessed as residual binding level at 10 uM by Kinomescan method relative to control
[3] = molecular target: Cyclin-dependent kinase-like 2 (Homo sapiens) (UniProt Q92772); assay: Binding affinity to wild-type human partial length CDKL2 (M1 to D327 residues) expressed in bacterial expression system assessed as residual binding level at 10 uM by Kinomescan method relative to control
[4] = molecular target: Tyrosine-protein kinase CSK (Homo sapiens) (UniProt P41240); assay: Binding affinity to wild-type human full length CSK (M1 to L450 residues) expressed in bacterial expression system assessed as residual binding level at 10 uM by Kinomescan method relative to control
[5] = molecular target: Dual specificity tyrosine-phosphorylation-regulated kinase 1A (Homo sapiens) (UniProt Q13627); assay: Binding affinity to wild-type human partial length DYRK1A (H129 to S509 residues) expressed in mammalian expression system assessed as residual binding level at 10 uM by Kinomescan method relative to control
[6] = system: Epidermal growth factor receptor (Homo sapiens), P00533 [UNDEFINED MUTATION]; assay: Binding affinity to human partial length EGFR L747-T751del/Sins mutant expressed in bacterial expression system assessed as residual binding level at 10 uM by Kinomescan method relative to control
[7] = molecular target: Ephrin type-B receptor 6 (Homo sapiens) (UniProt O15197); assay: Binding affinity to wild-type human partial length EPHB6 (Q634 to P948 residues) expressed in mammalian expression system assessed as residual binding level at 10 uM by Kinomescan method relative to control
[8] = molecular target: Receptor tyrosine-protein kinase erbB-2 (Homo sapiens) (UniProt P04626); assay: Binding affinity to wild-type human partial length ERBB2 (K646 to V1225 residues) expressed in mammalian expression system assessed as residual binding level at 10 uM by Kinomescan method relative to control
[9] = molecular target: Tyrosine-protein kinase HCK (Homo sapiens) (UniProt P08631); assay: Binding affinity to wild-type human full length HCK (M22 to P526 residues) expressed in bacterial expression system assessed as residual binding level at 10 uM by Kinomescan method relative to control
[10] = molecular target: Inhibitor of nuclear factor kappa-B kinase subunit beta (Homo sapiens) (UniProt O14920); assay: Binding affinity to wild-type human full length IKK-beta (M1 to S756 residues) expressed in mammalian expression system assessed as residual binding level at 10 uM by Kinomescan method relative to control
[11] = molecular target: Insulin receptor-related protein (Homo sapiens) (UniProt P14616); assay: Binding affinity to wild-type human partial length INSRR (R950 to E1278 residues) expressed in bacterial expression system assessed as residual binding level at 10 uM by Kinomescan method relative to control
[12] = molecular target: Interleukin-1 receptor-associated kinase 3 (Homo sapiens) (UniProt Q9Y616); assay: Binding affinity to wild-type human partial length IRAK3 (V147 to E596 residues) expressed in bacterial expression system assessed as residual binding level at 10 uM by Kinomescan method relative to control
[13] = system: Mast/stem cell growth factor receptor Kit (Homo sapiens), P10721 [D816V]; assay: Binding affinity to human partial length KIT D816V mutant (I571 to D952 residues) expressed in bacterial expression system assessed as residual binding level at 10 uM by Kinomescan method relative to control
[14] = system: Mast/stem cell growth factor receptor Kit (Homo sapiens), P10721 [L576P]; assay: Binding affinity to human partial length KIT L576P mutant (Y545 to D952 residues) expressed in bacterial expression system assessed as residual binding level at 10 uM by Kinomescan method relative to control
[15] = molecular target: Serine/threonine-protein kinase 10 (Homo sapiens) (UniProt O94804); assay: Binding affinity to wild-type human partial length LOK (E16 to V314 residues) expressed in bacterial expression system assessed as residual binding level at 10 uM by Kinomescan method relative to control
[16] = molecular target: Muscle, skeletal receptor tyrosine-protein kinase (Homo sapiens) (UniProt O15146); assay: Binding affinity to wild-type human partial length MUSK (M553 to V869 residues) expressed in bacterial expression system assessed as residual binding level at 10 uM by Kinomescan method relative to control
[17] = molecular target: Cyclin-dependent kinase 14 (Homo sapiens) (UniProt O94921); assay: Binding affinity to wild-type human full length PFTK1 (M1 to H451 residues) expressed in bacterial expression system assessed as residual binding level at 10 uM by Kinomescan method relative to control
[18] = molecular target: Serine/threonine-protein kinase pim-3 (Homo sapiens) (UniProt Q86V86); assay: Binding affinity to wild-type human partial length PIM3 (G16 to A317 residues) expressed in bacterial expression system assessed as residual binding level at 10 uM by Kinomescan method relative to control
[19] = molecular target: Protein kinase C delta type (Homo sapiens) (UniProt Q05655); assay: Binding affinity to wild-type human partial length PRKCD (Q328 to D676 residues) expressed in bacterial expression system assessed as residual binding level at 10 uM by Kinomescan method relative to control
[20] = molecular target: Protein kinase C iota type (Homo sapiens) (UniProt P41743); assay: Binding affinity to wild-type human partial length PRKCI (H215 to V587 residues) expressed in mammalian expression system assessed as residual binding level at 10 uM by Kinomescan method relative to control
[21] = molecular target: Protein kinase C theta type (Homo sapiens) (UniProt Q04759); assay: Binding affinity to wild-type human partial length PRKCQ (L350 to S706 residues) expressed in bacterial expression system assessed as residual binding level at 10 uM by Kinomescan method relative to control
[22] = molecular target: cGMP-dependent protein kinase 1 (Homo sapiens) (UniProt Q13976); assay: Binding affinity to wild-type human partial length PRKG1 (L339 to F686 residues) expressed in bacterial expression system assessed as residual binding level at 10 uM by Kinomescan method relative to control
[23] = molecular target: Serine/threonine-protein kinase RIO2 (Homo sapiens) (UniProt Q9BVS4); assay: Binding affinity to wild-type human partial length RIOK2 (M1 to D313 residues) expressed in mammalian expression system assessed as residual binding level at 10 uM by Kinomescan method relative to control
[24] = molecular target: Receptor-interacting serine/threonine-protein kinase 2 (Homo sapiens) (UniProt O43353); assay: Binding affinity to wild-type human partial length RIPK2 (M1 to K310 residues) expressed in bacterial expression system assessed as residual binding level at 10 uM by Kinomescan method relative to control
[25] = molecular target: Testis-specific serine/threonine-protein kinase 1 (Homo sapiens) (UniProt Q9BXA7); assay: Binding affinity to wild-type human full length TSSK1B (M1 to Q367 residues) expressed in bacterial expression system assessed as residual binding level at 10 uM by Kinomescan method relative to control

Insulin receptor-related protein (Homo sapiens), sequence (P14616 27-742 limits assumed): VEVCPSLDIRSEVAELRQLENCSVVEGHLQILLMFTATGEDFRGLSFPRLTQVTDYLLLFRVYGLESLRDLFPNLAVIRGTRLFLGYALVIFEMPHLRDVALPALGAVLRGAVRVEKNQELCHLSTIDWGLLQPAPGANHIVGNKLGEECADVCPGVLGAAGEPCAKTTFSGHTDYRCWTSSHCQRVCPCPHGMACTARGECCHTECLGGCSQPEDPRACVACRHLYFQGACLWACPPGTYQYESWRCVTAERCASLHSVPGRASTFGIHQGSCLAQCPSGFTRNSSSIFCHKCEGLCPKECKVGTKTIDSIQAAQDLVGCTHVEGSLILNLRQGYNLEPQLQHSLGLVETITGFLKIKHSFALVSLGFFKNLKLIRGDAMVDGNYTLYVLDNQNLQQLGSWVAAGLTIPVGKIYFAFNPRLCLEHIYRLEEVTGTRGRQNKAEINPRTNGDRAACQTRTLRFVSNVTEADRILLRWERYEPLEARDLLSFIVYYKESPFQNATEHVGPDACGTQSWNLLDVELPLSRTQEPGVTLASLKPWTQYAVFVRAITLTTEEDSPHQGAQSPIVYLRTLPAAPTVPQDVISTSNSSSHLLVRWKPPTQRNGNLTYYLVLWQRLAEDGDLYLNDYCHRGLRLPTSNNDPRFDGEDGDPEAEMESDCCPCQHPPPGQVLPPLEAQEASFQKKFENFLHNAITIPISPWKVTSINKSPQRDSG
Insulin receptor-related protein (Homo sapiens), sequence (P14616 747-1297 limits assumed): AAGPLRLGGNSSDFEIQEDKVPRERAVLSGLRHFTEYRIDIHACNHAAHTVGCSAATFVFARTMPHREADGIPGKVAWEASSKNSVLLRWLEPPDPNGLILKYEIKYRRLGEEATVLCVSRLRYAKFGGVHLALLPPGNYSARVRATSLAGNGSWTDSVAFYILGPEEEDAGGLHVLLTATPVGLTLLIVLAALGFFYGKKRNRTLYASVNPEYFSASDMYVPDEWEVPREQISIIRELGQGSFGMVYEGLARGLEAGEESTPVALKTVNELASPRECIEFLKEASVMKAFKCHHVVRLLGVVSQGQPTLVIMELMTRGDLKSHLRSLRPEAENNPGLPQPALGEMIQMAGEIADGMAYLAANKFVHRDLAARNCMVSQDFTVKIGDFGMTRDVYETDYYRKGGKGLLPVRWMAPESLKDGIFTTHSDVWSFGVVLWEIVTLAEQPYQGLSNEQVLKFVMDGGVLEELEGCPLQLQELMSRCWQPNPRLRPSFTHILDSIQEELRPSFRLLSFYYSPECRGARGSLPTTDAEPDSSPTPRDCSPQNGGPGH
Muscle, skeletal receptor tyrosine-protein kinase (Homo sapiens), sequence (O15146 whole entry, the tested form may be a part): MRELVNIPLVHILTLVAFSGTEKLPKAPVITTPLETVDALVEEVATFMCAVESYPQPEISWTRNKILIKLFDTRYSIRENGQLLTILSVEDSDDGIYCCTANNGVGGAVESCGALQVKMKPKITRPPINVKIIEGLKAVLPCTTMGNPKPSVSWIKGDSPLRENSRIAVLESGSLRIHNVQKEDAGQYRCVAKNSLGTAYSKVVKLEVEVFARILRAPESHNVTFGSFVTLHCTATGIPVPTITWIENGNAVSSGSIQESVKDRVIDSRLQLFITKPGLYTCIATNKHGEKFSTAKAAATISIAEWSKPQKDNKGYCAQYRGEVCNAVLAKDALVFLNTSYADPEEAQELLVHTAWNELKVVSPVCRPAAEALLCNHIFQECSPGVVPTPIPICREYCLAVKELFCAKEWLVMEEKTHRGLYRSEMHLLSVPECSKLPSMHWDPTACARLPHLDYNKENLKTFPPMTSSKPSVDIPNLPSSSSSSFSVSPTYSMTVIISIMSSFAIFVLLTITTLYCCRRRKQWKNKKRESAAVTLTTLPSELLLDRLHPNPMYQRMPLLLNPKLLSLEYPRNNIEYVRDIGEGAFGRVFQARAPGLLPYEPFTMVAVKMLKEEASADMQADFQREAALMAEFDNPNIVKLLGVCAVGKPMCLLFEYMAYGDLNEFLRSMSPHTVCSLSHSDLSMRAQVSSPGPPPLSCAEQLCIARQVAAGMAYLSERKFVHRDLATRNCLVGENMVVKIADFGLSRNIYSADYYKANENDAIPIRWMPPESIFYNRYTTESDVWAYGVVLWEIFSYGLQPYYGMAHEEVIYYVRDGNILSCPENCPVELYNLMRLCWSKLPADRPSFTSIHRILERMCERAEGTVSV
Epidermal growth factor receptor (Homo sapiens), P00533 [UNDEFINED MUTATION], sequence (P00533 whole entry, looked up, stated change not applied, the tested form may be a part): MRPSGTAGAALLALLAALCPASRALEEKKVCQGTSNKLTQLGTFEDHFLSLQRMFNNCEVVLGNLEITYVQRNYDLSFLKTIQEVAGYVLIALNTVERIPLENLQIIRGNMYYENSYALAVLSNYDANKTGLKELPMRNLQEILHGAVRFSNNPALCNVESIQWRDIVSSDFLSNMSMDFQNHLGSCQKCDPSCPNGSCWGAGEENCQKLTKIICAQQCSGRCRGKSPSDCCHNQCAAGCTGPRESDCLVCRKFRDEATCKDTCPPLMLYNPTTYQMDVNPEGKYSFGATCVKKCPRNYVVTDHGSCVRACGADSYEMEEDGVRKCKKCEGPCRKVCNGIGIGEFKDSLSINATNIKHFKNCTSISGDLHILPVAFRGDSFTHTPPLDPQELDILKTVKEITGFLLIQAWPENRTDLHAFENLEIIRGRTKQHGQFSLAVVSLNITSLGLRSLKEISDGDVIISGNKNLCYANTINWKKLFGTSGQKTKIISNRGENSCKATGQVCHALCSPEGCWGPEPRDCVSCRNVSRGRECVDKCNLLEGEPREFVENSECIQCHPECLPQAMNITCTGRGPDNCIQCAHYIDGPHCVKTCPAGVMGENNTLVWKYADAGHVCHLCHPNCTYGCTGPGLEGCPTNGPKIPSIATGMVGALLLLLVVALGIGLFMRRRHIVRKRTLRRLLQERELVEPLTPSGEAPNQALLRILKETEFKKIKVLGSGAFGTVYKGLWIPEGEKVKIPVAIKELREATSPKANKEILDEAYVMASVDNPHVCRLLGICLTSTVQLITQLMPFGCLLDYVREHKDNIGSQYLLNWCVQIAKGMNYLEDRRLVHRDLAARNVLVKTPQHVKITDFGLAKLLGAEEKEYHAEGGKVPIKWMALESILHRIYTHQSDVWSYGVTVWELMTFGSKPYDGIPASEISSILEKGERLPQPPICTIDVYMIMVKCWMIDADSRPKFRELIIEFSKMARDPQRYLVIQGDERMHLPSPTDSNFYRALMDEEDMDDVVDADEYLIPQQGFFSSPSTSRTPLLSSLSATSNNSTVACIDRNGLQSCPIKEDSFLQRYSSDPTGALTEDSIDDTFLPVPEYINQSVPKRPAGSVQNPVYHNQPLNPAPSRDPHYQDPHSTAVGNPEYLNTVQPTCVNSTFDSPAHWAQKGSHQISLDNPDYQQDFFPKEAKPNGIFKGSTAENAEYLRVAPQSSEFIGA
Serine/threonine-protein kinase RIO2 (Homo sapiens), sequence (Q9BVS4 whole entry, looked up, the tested form may be a part): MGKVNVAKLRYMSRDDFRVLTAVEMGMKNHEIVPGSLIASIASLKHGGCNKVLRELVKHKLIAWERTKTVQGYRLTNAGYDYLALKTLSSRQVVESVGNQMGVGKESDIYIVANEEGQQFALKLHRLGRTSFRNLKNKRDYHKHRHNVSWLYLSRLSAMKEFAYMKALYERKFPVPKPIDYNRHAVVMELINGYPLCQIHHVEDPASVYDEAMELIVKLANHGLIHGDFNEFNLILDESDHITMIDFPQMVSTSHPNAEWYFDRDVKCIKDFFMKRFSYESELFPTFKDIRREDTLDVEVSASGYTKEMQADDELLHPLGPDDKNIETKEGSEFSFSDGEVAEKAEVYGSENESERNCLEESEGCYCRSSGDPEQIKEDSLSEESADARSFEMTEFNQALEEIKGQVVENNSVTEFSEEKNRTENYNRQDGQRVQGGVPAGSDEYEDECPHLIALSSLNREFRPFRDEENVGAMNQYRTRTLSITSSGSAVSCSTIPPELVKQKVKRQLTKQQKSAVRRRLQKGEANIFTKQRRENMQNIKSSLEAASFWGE
Tyrosine-protein kinase CSK (Homo sapiens), sequence (P41240 2-450 limits assumed): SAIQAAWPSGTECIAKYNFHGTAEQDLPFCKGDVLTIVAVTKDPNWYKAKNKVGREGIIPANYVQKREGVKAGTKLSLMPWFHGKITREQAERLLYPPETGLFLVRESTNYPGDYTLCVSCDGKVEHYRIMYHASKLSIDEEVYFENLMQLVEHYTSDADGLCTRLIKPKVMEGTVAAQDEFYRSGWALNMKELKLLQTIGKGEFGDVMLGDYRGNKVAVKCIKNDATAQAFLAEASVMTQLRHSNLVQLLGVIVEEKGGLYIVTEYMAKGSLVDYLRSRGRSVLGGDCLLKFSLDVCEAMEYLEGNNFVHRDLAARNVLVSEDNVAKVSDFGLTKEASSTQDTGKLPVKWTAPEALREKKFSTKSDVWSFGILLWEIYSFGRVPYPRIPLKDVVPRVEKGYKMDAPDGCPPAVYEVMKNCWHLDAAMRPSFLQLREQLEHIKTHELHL
Tyrosine-protein kinase HCK (Homo sapiens), sequence (P08631 2-526 limits assumed): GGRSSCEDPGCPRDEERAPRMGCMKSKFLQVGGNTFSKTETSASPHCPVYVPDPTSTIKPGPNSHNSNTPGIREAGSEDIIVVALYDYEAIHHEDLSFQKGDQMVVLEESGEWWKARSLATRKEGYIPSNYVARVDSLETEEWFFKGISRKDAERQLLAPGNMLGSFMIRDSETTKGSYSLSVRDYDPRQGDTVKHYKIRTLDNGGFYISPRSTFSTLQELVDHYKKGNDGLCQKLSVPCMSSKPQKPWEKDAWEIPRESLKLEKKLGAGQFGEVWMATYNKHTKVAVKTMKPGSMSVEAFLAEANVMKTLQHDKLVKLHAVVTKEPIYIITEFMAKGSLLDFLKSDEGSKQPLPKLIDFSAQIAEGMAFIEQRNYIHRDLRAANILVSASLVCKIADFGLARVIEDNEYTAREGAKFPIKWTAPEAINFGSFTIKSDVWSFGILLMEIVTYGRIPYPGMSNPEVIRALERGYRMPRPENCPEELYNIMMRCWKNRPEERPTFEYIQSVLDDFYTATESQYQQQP

## O=C(Nc1cc(-c2cn(CCNc3c4c(nc5ccccc35)CCCC4)nn2)ccn1)Nc1cccc2c1C1CCCCN1C2=O (racemic)
[1]
  Activity: 1.4%
[2]
  Activity: 13%
[3]
  Activity: 0.1%
[4]
  Activity: 77%
[5]
  Activity: 2.4%
[6]
  Activity: 75%
[7]
  Activity: 13%
[8]
  Activity: 100%
[9]
  Activity: 100%
[10]
  Activity: 30%
[11]
  Activity: 68%
[12]
  Activity: 16%
[13]
  Activity: 1%
[14]
  Activity: 0%
[15]
  Activity: 99%
[16]
  Activity: 49%
[17]
  Activity: 28%
[18]
  Activity: 24%
[19]
  Activity: 7.3%
[20]
  Activity: 100%
[21]
  Activity: 27%
[22]
  Activity: 92%
[23]
  Activity: 22%
[24]
  Activity: 66%
[25]
  Activity: 47%

From ChEMBL document CHEMBL4390652, “Design, biological evaluation and X-ray crystallography of nanomolar multifunctional ligands targeting simultaneously acetylcholinesterase and glycogen synthase kinase-3” (Eur J Med Chem, 2019)
